Reference: the kinase profiling compilation of Christmann-Franck et al. (2016)

Key:
Assay in all cases: KINOMEscan competition binding
Conditions in all cases: compound 10.0 µM
ADCK3 (human) = ADCK3 (human) (UniProt Q8NI60)
ALK (human) = ALK (human) (UniProt Q9UM73)
BRSK2 (human) = BRSK2 (human) (UniProt Q8IWQ3)
CAMK2G (human) = CAMK2G (human) (UniProt Q13555)
CDK4 CCND1 (human) = CDK4 CCND1 (human) (UniProt P11802+P24385)
CDK4 CCND3 (human) = CDK4 CCND3 (human) (UniProt P11802+P30281)
CDKL5 (human) = CDKL5 (human) (UniProt O76039)
CPK1 (P.falciparum) = system: CPK1 (P.falciparum)
DDR2 (human) = DDR2 (human) (UniProt Q16832)
EPHA5 (human) = EPHA5 (human) (UniProt P54756)
EPHB6 (human) = EPHB6 (human) (UniProt O15197)
FER (human) = FER (human) (UniProt P16591)
FGR (human) = FGR (human) (UniProt P09769)
[1] = system: FLT3 (human), P36888 [R834Q]
GRK7 (human) = GRK7 (human) (UniProt Q8WTQ7)
HCK (human) = HCK (human) (UniProt P08631)
KDR (human) = KDR (human) (UniProt P35968)
LIMK1 (human) = LIMK1 (human) (UniProt P53667)
LIMK2 (human) = LIMK2 (human) (UniProt P53671)
MAP2K5 (human) = MAP2K5 (human) (UniProt Q13163)
MAP4K1 (human) = MAP4K1 (human) (UniProt Q92918)
MAP4K3 (human) = MAP4K3 (human) (UniProt Q8IVH8)
MARK4 (human) = MARK4 (human) (UniProt Q96L34)
MERTK (human) = MERTK (human) (UniProt Q12866)
MYLK (human) = MYLK (human) (UniProt Q15746)
NLK (human) = NLK (human) (UniProt Q9UBE8)
PAK2 (human) = PAK2 (human) (UniProt Q13177)
PDGFRA (human) = PDGFRA (human) (UniProt P16234)
PHKG1 (human) = PHKG1 (human) (UniProt Q16816)
PIM2 (human) = PIM2 (human) (UniProt Q9P1W9)
PIP4K2B (human) = PIP4K2B (human) (UniProt P78356)
PRKCE (human) = PRKCE (human) (UniProt Q02156)
ROCK2 (human) = ROCK2 (human) (UniProt O75116)
RPS6KA2 KD1 (human) = RPS6KA2 KD1 (human) (UniProt Q15349)
RPS6KA3 KD1 (human) = RPS6KA3 KD1 (human) (UniProt P51812)
RPS6KA5 KD1 (human) = RPS6KA5 KD1 (human) (UniProt O75582)
RPS6KA6 KD1 (human) = RPS6KA6 KD1 (human) (UniProt Q9UK32)
SGK3 (human) = SGK3 (human) (UniProt Q96BR1)
SRPK2 (human) = SRPK2 (human) (UniProt P78362)
STK32A (human) = STK32A (human) (UniProt Q8WU08)
TESK1 (human) = TESK1 (human) (UniProt Q15569)
ULK2 (human) = ULK2 (human) (UniProt Q8IYT8)
WEE1 (human) = WEE1 (human) (UniProt P30291)

Sequence of PIP4K2B (human) (P78356 whole entry, looked up): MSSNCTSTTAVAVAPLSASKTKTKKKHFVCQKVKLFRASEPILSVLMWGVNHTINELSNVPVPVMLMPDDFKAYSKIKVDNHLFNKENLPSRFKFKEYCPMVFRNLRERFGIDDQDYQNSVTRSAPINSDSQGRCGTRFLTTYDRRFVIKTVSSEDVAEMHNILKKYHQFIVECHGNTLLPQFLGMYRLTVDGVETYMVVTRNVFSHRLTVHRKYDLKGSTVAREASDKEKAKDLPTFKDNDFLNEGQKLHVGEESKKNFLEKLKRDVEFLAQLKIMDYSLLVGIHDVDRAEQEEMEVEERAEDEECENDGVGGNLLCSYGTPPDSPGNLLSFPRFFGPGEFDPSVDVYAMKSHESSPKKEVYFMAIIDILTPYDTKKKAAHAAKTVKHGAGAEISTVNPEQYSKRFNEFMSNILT
Sequence of DDR2 (human) (Q16832 whole entry, looked up): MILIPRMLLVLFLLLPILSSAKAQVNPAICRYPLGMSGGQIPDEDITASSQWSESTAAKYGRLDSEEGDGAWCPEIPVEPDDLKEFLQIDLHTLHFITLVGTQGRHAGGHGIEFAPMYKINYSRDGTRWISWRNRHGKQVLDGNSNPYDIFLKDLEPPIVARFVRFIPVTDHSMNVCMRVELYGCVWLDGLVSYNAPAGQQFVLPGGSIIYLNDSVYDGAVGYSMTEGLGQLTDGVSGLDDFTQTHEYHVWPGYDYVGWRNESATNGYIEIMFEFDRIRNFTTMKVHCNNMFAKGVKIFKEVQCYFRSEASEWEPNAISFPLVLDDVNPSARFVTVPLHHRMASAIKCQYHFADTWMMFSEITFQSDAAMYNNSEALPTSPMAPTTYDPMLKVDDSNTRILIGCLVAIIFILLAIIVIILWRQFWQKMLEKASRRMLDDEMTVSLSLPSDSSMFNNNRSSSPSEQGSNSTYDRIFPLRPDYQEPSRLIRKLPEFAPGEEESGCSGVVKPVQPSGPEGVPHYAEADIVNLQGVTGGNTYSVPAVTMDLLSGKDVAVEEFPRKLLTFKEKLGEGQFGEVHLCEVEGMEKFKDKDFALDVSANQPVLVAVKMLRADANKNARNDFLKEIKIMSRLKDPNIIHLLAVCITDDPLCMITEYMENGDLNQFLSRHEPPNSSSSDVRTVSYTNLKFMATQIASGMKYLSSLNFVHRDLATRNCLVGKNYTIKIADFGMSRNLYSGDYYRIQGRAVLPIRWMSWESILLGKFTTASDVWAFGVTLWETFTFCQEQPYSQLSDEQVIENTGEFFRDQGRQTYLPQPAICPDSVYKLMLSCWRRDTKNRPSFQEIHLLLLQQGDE
Sequence of CDK4 CCND3 (human) (P11802 whole entry, looked up): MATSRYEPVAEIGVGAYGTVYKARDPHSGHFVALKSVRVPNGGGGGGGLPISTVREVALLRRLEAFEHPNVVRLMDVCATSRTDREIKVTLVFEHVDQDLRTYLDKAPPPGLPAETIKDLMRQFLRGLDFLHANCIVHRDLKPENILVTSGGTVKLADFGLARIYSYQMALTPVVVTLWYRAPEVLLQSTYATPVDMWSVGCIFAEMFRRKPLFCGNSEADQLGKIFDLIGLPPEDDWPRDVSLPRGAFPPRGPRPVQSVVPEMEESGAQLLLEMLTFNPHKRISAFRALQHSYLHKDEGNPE
Sequence of CDK4 CCND3 (human) (P30281 whole entry, looked up): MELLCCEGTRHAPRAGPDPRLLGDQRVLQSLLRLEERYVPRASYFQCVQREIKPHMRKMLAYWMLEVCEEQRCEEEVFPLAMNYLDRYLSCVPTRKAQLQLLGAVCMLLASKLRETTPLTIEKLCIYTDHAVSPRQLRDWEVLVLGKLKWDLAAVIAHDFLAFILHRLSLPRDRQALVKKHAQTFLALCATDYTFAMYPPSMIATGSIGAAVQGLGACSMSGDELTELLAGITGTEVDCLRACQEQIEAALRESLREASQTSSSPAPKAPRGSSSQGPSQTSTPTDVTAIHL
Sequence of CDK4 CCND1 (human) (P11802 whole entry, looked up): as the sequence (P11802 whole entry, looked up) above
Sequence of CDK4 CCND1 (human) (P24385 whole entry, looked up): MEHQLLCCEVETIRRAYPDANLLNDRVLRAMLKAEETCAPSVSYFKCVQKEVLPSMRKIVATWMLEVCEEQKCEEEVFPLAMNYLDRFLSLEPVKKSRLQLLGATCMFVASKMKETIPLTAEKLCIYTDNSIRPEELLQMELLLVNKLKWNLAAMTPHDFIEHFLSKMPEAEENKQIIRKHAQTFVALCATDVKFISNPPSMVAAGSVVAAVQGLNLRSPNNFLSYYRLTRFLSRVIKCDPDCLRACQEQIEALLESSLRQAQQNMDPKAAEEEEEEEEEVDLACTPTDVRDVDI
Sequence of STK32A (human) (Q8WU08 whole entry, looked up): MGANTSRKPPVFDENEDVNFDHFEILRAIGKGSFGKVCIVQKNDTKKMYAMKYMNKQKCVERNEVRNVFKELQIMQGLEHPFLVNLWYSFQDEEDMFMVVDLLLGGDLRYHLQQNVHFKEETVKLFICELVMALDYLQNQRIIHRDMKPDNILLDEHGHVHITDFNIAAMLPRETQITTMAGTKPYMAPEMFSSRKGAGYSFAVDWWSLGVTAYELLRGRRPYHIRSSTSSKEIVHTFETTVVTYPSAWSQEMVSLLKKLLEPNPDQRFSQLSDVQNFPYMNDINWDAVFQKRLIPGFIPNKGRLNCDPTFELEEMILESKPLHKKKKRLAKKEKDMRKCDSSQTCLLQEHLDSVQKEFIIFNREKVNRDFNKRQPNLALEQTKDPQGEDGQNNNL
Sequence of LIMK1 (human) (P53667 whole entry, looked up): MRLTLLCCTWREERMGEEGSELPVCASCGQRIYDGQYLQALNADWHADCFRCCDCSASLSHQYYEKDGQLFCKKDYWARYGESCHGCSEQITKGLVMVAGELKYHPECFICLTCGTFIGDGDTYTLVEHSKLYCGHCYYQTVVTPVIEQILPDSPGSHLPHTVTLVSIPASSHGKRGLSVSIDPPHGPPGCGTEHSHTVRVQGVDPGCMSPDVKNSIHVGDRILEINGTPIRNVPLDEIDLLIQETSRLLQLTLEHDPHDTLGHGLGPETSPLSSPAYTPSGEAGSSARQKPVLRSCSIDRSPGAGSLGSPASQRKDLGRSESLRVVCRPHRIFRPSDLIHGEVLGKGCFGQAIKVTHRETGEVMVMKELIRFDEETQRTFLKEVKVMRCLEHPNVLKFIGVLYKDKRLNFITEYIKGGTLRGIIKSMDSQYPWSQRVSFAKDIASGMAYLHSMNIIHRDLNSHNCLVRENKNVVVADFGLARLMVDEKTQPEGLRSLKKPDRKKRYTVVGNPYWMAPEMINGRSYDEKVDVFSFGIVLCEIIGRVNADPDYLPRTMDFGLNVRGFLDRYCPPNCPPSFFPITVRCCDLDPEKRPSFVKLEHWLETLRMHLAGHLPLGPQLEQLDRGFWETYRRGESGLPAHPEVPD
Sequence of MAP2K5 (human) (Q13163 whole entry, looked up): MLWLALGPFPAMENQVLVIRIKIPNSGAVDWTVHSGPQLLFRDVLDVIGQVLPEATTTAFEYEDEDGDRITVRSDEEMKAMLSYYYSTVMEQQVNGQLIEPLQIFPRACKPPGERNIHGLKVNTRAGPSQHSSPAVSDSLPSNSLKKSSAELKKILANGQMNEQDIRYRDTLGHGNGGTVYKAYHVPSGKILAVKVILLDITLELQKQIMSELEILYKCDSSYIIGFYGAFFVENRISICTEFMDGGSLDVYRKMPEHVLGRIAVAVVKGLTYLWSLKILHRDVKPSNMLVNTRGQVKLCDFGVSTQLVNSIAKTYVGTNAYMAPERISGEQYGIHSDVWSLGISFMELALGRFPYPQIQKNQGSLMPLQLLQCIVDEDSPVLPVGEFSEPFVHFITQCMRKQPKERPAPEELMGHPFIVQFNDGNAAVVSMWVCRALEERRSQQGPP
Sequence of HCK (human) (P08631 whole entry, looked up): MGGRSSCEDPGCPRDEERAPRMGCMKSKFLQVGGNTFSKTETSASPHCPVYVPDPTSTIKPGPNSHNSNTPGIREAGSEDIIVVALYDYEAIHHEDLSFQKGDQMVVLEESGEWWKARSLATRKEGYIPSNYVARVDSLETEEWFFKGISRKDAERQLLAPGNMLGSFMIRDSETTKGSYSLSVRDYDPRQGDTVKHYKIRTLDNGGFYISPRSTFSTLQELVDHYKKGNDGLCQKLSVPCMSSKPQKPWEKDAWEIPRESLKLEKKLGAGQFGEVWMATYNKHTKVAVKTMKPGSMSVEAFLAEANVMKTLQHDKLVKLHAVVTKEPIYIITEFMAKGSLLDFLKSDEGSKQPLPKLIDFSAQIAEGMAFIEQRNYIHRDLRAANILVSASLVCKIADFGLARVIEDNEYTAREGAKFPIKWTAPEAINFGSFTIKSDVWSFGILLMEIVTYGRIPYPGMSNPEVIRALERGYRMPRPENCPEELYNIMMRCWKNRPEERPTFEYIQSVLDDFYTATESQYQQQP
Sequence of PHKG1 (human) (Q16816 whole entry, looked up): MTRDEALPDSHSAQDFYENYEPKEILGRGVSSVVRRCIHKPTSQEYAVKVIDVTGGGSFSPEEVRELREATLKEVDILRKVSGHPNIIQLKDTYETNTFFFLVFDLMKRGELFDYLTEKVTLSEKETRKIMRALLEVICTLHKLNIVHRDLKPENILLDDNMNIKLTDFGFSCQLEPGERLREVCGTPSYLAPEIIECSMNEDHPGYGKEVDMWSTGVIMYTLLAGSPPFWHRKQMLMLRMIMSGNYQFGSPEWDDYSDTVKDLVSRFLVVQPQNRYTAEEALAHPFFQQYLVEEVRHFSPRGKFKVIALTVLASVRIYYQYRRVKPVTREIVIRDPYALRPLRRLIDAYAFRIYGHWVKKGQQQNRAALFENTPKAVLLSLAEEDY
Sequence of PIM2 (human) (Q9P1W9 whole entry, looked up): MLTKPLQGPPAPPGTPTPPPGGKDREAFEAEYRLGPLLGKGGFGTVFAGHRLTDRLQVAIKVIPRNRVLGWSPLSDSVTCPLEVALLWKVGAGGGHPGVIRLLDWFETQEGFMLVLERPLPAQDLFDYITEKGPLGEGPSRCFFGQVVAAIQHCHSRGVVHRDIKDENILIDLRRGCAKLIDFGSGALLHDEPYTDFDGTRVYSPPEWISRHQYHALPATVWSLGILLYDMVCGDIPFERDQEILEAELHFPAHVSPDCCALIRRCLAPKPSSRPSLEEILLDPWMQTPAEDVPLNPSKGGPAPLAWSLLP

For Cc1ccc(NC(=O)c2ccc(NC(=O)/C=C/CN(C)C)cc2)cc1Nc1nccc(-c2cccnc2)n1, the kinase still bound, per cent of control (ADCK3 (human)) was 76%, the kinase still bound, per cent of control (ALK (human)) was 100% and the kinase still bound, per cent of control (BRSK2 (human)) was 88%. For the same compound, the kinase still bound, per cent of control (CAMK2G (human)) was 95%, the kinase still bound, per cent of control (CDK4 CCND1 (human)) was 100% and the kinase still bound, per cent of control (CDK4 CCND3 (human)) was 100%. It also gave a kinase still bound, per cent of control (CDKL5 (human)) of 100%, a kinase still bound, per cent of control (CPK1 (P.falciparum)) of 86% and a kinase still bound, per cent of control (DDR2 (human)) of 0.9%. The kinase still bound, per cent of control (EPHA5 (human)) was 97%, the kinase still bound, per cent of control (EPHB6 (human)) was 26% and the kinase still bound, per cent of control (FER (human)) was 90%. It also gave a kinase still bound, per cent of control (FGR (human)) of 80%, a kinase still bound, per cent of control [1] of 56% and a kinase still bound, per cent of control (GRK7 (human)) of 82%. The kinase still bound, per cent of control (HCK (human)) was 89%, the kinase still bound, per cent of control (KDR (human)) was 85% and the kinase still bound, per cent of control (LIMK1 (human)) was 85%. The kinase still bound, per cent of control (LIMK2 (human)) was 78%, the kinase still bound, per cent of control (MAP2K5 (human)) was 66% and the kinase still bound, per cent of control (MAP4K1 (human)) was 90%. For the same compound, the kinase still bound, per cent of control (MAP4K3 (human)) was 78%, the kinase still bound, per cent of control (MARK4 (human)) was 77% and the kinase still bound, per cent of control (MERTK (human)) was 81%. The kinase still bound, per cent of control (MYLK (human)) was 73%, the kinase still bound, per cent of control (NLK (human)) was 100% and the kinase still bound, per cent of control (PAK2 (human)) was 80%. It also gave a kinase still bound, per cent of control (PDGFRA (human)) of 0.4%, a kinase still bound, per cent of control (PHKG1 (human)) of 87% and a kinase still bound, per cent of control (PIM2 (human)) of 100%. The kinase still bound, per cent of control (PIP4K2B (human)) was 69%, the kinase still bound, per cent of control (PRKCE (human)) was 100% and the kinase still bound, per cent of control (ROCK2 (human)) was 61%. The kinase still bound, per cent of control (RPS6KA2 KD1 (human)) was 76%, the kinase still bound, per cent of control (RPS6KA3 KD1 (human)) was 52% and the kinase still bound, per cent of control (RPS6KA5 KD1 (human)) was 90%. The kinase still bound, per cent of control (RPS6KA6 KD1 (human)) was 50%, the kinase still bound, per cent of control (SGK3 (human)) was 99% and the kinase still bound, per cent of control (SRPK2 (human)) was 100%. The kinase still bound, per cent of control (STK32A (human)) was 50%, the kinase still bound, per cent of control (TESK1 (human)) was 100% and the kinase still bound, per cent of control (ULK2 (human)) was 30%. It also gave a kinase still bound, per cent of control (WEE1 (human)) of 100%.
